Values quoted from earlier work, collected in PMC12580894 (Cancer Research Communications, 2025).

Legend:
[1] = system: patients with advanced solid tumours; details: berzosertib with cisplatin
[2] = system: untreated advanced urothelial carcinoma

CNCc1ccc(-c2cc(-c3nc(-c4ccc(S(=O)(=O)C(C)C)cc4)cnc3N)on2)cc1 [berzosertib]
patients with a confirmed PR ([1]; despite prior platinum exposure, 31 patients): Two | most common AEs ([1]; phase I): hematologic in nature | DLTs observed ([1]; phase I, 31 patients): a grade 3 hypersensitivity reaction and a grade 3 increase in alanine aminotransferase | Hematologic toxicity rates ([2]; GC plus berzosertib versus GC alone): higher | clinical benefit upon the addition of berzosertib ([2]; gemcitabine and cisplatin (GC) with or without berzosertib): no clinical benefit
